Converted amounts (≈) assume the structure as drawn.
Assays:
[1] = system: Staphylococcus aureus S13E; type: cell-based
Experimental: (§1) The MIC's were determined using a standard broth micro-dilution assay.

[2] = system: Staphylococcus aureus SA1199B; type: cell-based
Experimental: as §1

[3] = system: Entercoccus faecium 180-1; assay: broth micro-dilution MIC; type: cell-based
Experimental: as §1

Entercoccus faecium 276 = assay: broth micro-dilution MIC; type: cell-based
Experimental: as §1

[4] = system: Staphylococcus aureus 446; assay: broth micro-dilution MIC; type: cell-based
Experimental: as §1

[5] = system: Staphylococcus aureus 447; assay: broth micro-dilution MIC; type: cell-based
Experimental: as §1

[6] = system: Staphylococcus aureus 489; assay: broth micro-dilution MIC; type: cell-based
Experimental: as §1

[7] = system: Staphylococcus aureus 491; assay: broth micro-dilution MIC; type: cell-based
Experimental: as §1

[8] = system: Staphylococcus aureus SA1199A; assay: broth micro-dilution MIC; type: cell-based
Experimental: as §1

[9] = system: Staphylococcus aureus SA1199; assay: broth micro-dilution MIC; type: cell-based
Experimental: as §1

[10] = system: Staphylococcus aureus X400; assay: broth micro-dilution MIC; type: cell-based
Experimental: as §1

[11] = system: Staphylococcus aureus X778; assay: broth micro-dilution MIC; type: cell-based
Experimental: as §1

[12] = system: Streptococcus pyogenes C203; assay: broth micro-dilution MIC; type: cell-based
Experimental: as §1

Entercoccus faecium 180 = assay: broth micro-dilution MIC; type: cell-based; conditions: Entercoccus faecium 180
Experimental: (§2) The formula I compounds have in vitro and in vivo activity against Gram-positive pathogenic bacteria. The MIC's were determined using a standard broth micro-dilution assay.

Entercoccus faecium 2041 = assay: broth micro-dilution MIC; type: cell-based; conditions: Entercoccus faecium 2041
Experimental: as §2

[13] = system: Enterococcus gallinarum 245; assay: broth micro-dilution MIC; type: cell-based; conditions: Enterococcus gallinarum 245
Experimental: as §2

[14] = system: Staphylococcus epidermidis 270; assay: broth micro-dilution MIC; type: cell-based
Experimental: as §2

[15] = system: Staphylococcus haemolyticus 105; assay: broth micro-dilution MIC; type: cell-based
Experimental: as §2

[16] = system: Staphylococcus haemolyticus 415; assay: broth micro-dilution MIC; type: cell-based
Experimental: as §2

[17] = system: Streptococcus pneumoniae P1; assay: broth micro-dilution MIC; type: cell-based
Experimental: as §2

[18] = system: vancomycin-resistant enterococci; assay: broth micro-dilution, mean geometric MIC; type: cell-based, Enterococcus faecium and Enterococcus faecalis; conditions: enterococci, 24-hour incubation
[19] = system: vancomycin-susceptible enterococci; assay: broth micro-dilution, mean geometric MIC; type: cell-based, Enterococcus faecium and Enterococcus faecalis; conditions: enterococci, 24-hour incubation

Row | Structure (SMILES) | MIC [1] [µg/mL] | MIC [2] [µg/mL] | MIC [3] [µg/mL] | MIC (Entercoccus faecium 276) [µg/mL] | MIC [4] [µg/mL] | MIC [5] [µg/mL] | MIC [6] [µg/mL] | MIC [7] [µg/mL] | MIC [8] [µg/mL] | MIC [9] [µg/mL] | MIC [10] [µg/mL] | MIC [11] [µg/mL] | MIC [12] [µg/mL] | MIC (Entercoccus faecium 180) [µg/mL] | MIC (Entercoccus faecium 2041) [µg/mL] | MIC [13] [µg/mL] | MIC [14] [µg/mL] | MIC [15] [µg/mL] | MIC [16] [µg/mL] | MIC [17] [µg/mL] | other results
1 | CN[C@H](CC(C)C)C(=O)N[C@H]1C(=O)N[C@@H](CC(N)=O)C(=O)N[C@H]2C(=O)N[C@H]3C(=O)N[C@H](C(=O)N[C@H](C(=O)O)c4cc(O)cc(O)c4-c4cc3ccc4O)[C@H](O[C@H]3C[C@](C)(N)[C@@H](O)[C@H](C)O3)c3ccc(c(Cl)c3)Oc3cc2cc(c3O[C@@H]2O[C@H](CO)[C@@H](O)[C@H](O)[C@H]2O[C@H]2C[C@](C)(NCc3ccc(Oc4ccc(C)cc4)cc3)[C@@H](O)[C@H](C)O2)Oc2ccc(cc2Cl)[C@H]1O [Compound 95] | 2 (≈ 1.12 µM) | 1 (≈ 0.559 µM) | ≤ 0.06 | 0.125 (≈ 0.0699 µM) | 0.5 (≈ 0.28 µM) | 0.5 (≈ 0.28 µM) | 2 (≈ 1.12 µM) | 1 (≈ 0.559 µM) | ≤ 0.06 | 0.5 (≈ 0.28 µM) | 1 (≈ 0.559 µM) | 1 (≈ 0.559 µM) | ≤ 0.06 | 0.5 (≈ 0.28 µM) | ≤ 0.06 | 1 (≈ 0.559 µM) | 1 (≈ 0.559 µM) | 1 (≈ 0.559 µM) | 1 (≈ 0.559 µM) | ≤ 0.06 | mean geometric MIC, Vancomycin Resistant Strains [18]: 1.7 µg/mL; mean geometric MIC, Vancomycin Sensitive Strains [19]: 0.054 µg/mL
2 | CN[C@H](CC(C)C)C(=O)N[C@H]1C(=O)N[C@@H](CC(N)=O)C(=O)N[C@H]2C(=O)N[C@H]3C(=O)N[C@H](C(=O)N[C@H](C(=O)O)c4cc(O)cc(O)c4-c4cc3ccc4O)[C@H](O[C@H]3C[C@](C)(N)[C@@H](O)[C@H](C)O3)c3ccc(c(Cl)c3)Oc3cc2cc(c3O[C@@H]2O[C@H](CO)[C@@H](O)[C@H](O)[C@H]2O[C@H]2C[C@](C)(NCc3ccc(Oc4ccc(C(C)(C)C)cc4)cc3)[C@@H](O)[C@H](C)O2)Oc2ccc(cc2Cl)[C@H]1O [Compound 96] | 1 (≈ 0.546 µM) | 1 (≈ 0.546 µM) | 0.25 (≈ 0.137 µM) | 0.5 (≈ 0.273 µM) | 1 (≈ 0.546 µM) | 1 (≈ 0.546 µM) | 1 (≈ 0.546 µM) | 1 (≈ 0.546 µM) | ≤ 0.06 | 2 (≈ 1.09 µM) | 2 (≈ 1.09 µM) | 1 (≈ 0.546 µM) | ≤ 0.06 | 0.5 (≈ 0.273 µM) | 1 (≈ 0.546 µM) | 2 (≈ 1.09 µM) | 2 (≈ 1.09 µM) | 2 (≈ 1.09 µM) | 2 (≈ 1.09 µM) | ≤ 0.06 | mean geometric MIC, Vancomycin Resistant Strains [18]: 1.4 µg/mL; mean geometric MIC, Vancomycin Sensitive Strains [19]: 0.11 µg/mL
3 | CCCOC(c1ccccc1)c1ccc(CNC2(C)CC(OC3C(Oc4c5cc6cc4Oc4ccc(cc4Cl)C(OC4CC(C)(N)C(O)C(C)O4)C4NC(=O)C(NC(=O)C6NC(=O)C(CC(N)=O)NC(=O)C(NC(=O)C(CC(C)C)NC)C(O)c6ccc(c(Cl)c6)O5)c5ccc(O)c(c5)-c5c(O)cc(O)cc5C(C(=O)O)NC4=O)OC(CO)C(O)C3O)OC(C)C2O)cc1 (stereo not drawn) [Compound 128] | 1 (≈ 0.546 µM) | 2 (≈ 1.09 µM) | 0.125 (≈ 0.0683 µM) | 1 (≈ 0.546 µM) | 4 (≈ 2.18 µM) | 1 (≈ 0.546 µM) | 1 (≈ 0.546 µM) | 2 (≈ 1.09 µM) | 0.5 (≈ 0.273 µM) | 0.5 (≈ 0.273 µM) | 1 (≈ 0.546 µM) | 1 (≈ 0.546 µM) | ≤ 0.06 | 1 (≈ 0.546 µM) | 0.5 (≈ 0.273 µM) | 2 (≈ 1.09 µM) | 1 (≈ 0.546 µM) | 1 (≈ 0.546 µM) | 2 (≈ 1.09 µM) | ≤ 0.06 | mean geometric MIC, Vancomycin Resistant Strains [18]: 2.0 µg/mL; mean geometric MIC, Vancomycin Sensitive Strains [19]: 0.11 µg/mL

From patent US5840684A, “Glycopeptide antibiotic derivatives” (Eli Lilly and Company, priority 1995, dated 1998)
